Results taken from patent US11851440B2, “Modulators of eukaryotic initiation factor 2B, compositions and methods” (Denali Therapeutics Inc., priority 2017, dated 2023).
Read-outs that look alike come from different tables or passages of the source.

Experiments:
[1] = test system: ISR pathway (ATF4 translation); test: ATF4 Nano Luciferase reporter integrated stress response (ISR) assay in H4 ATF4-NLuc cells; details: Homo sapiens, compound 30 minutes, then 50 um sodium arsenite for 6 hours, luminescence readout
[2] = molecular target: T1, P-gp (P-glycoprotein, MDR1) (Homo sapiens, UniProt P08183); test: MDCKII-MDR1 permeability, bidirectional assay; format: in vitro ADME; details: dog, MDCK-MDR1, MDCKII-MDR1 cells, HBSS+12.5 mM HEPES pH 7.4
T1 construct: host or cells: MDCKII-MDR1 cells (pre-plated, Corning HTS Transwell-96)
T1 sequence (P08183 whole entry): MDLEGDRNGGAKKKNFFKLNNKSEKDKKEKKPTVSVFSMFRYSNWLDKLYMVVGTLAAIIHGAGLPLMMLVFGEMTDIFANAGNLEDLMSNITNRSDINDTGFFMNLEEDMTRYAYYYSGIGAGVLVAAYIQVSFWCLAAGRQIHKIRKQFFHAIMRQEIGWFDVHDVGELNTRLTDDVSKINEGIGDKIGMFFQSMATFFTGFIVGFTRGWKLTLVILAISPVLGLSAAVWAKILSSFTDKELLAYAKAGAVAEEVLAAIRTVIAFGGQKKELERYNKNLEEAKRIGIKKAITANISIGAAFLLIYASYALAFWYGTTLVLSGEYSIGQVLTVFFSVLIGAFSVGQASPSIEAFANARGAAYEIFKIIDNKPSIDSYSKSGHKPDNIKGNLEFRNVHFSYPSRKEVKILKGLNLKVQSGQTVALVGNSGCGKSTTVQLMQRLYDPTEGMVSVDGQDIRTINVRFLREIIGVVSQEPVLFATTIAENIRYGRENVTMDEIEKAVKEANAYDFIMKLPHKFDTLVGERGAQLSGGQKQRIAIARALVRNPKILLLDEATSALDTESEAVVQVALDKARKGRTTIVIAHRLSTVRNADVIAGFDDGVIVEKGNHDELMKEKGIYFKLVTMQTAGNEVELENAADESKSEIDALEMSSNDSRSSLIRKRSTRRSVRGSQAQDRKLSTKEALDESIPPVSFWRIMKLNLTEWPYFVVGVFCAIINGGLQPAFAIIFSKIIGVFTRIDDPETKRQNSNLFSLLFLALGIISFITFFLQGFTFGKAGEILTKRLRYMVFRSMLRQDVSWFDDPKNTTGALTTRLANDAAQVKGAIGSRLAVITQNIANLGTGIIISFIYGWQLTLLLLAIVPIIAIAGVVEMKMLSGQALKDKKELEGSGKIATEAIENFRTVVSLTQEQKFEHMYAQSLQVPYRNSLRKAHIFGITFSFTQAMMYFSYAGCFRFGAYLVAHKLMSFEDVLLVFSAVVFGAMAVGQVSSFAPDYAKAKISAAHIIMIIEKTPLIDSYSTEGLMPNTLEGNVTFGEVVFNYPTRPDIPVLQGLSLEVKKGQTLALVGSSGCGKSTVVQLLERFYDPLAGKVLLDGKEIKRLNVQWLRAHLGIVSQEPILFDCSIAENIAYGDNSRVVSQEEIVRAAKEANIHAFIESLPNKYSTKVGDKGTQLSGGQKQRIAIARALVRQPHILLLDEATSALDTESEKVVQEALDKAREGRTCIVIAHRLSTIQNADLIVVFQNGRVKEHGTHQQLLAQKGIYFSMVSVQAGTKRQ
Description: The blood brain barrier (BBB) separates circulating blood from the extracellular fluid of the central nervous system (CNS). […] A bidirectional assay (Apical to Basolateral (A→B) and Basolateral to Apical (B→A)), in the absence and in the presence of GF120918 (a P-gp inhibitor) was conducted using pre-plated MDCKII-MDR1 cells (Corning HTS Transwell-96) obtained from SOLVO Biotechnology. The assay was run at 3 μM for 90 min (minutes) in triplicate using a HBSS+12.5 mM HEPES pH 7.4 transport buffer. Following incubation of samples from donor and receiver, wells were removed and measured by LC-MS/MS. Samples were extracted by protein precipitation with acetonitrile containing an appropriate internal standard (IS) having a known mass and molecular weight. The precipitate was centrifuged for 10 min at 3000 rpm (revolutions per minute). The supernatants were then collected, diluted if necessary, and injected on to the LC-MS/MS system. Specific parent/daughter ion pairs for the test article and IS were used to selectively measure the test articles. Papp (apparent permeability expressed in nm/sec [nanometer/second]) values were calculated according to the following equation: […]
Where dQ/dt is the permeability rate, C0 is the initial concentration in the donor solution (expressed as IS ratio), A and B are the surface areas of the filter (the surface area of the cell monolayer).
Monolayer efflux ratios (ER) were derived using the following equation: […]

[3] = read-out: Activity (IC50), H4 ATF4-NLuc (clone 17) cells

| Structure (SMILES) | IC50 ([1]; H4 ATF4-NLuc (clone 17) cells) | IC50 [1, 3] | efflux ratio at 90 min, 3 μM [2] |
| --- | --- | --- | --- |
| O=C(CO[C@H]1C[C@@H](OC(F)(F)F)C1)NC12CC(c3cnn(-c4ccc(Cl)c(F)c4)c3)(C1)C2 [Example 236, N-(3-(1-(4-chloro-3-fluorophenyl)-1H-pyrazol-4-yl)bicyclo[1.1.1]pentan-1-yl)-2-(3-cis-(trifluoromethoxy)cyclobutoxy)acetamide] | 21.5 nM | < 1000 nM | ≤ 2.5 |
| O=C(CO[C@H]1C[C@@H](OC(F)(F)F)C1)NC12CC(n3cnc(-c4ccc(Cl)cc4F)c3)(C1)C2 [Example 146, N-(3-(4-(4-chloro-2-fluorophenyl)-1H-imidazol-1-yl)bicyclo[1.1.1]pentan-1-yl)-2-(3-cis-(trifluoromethoxy)cyclobutoxy)acetamide] | 3.7 nM | < 1000 nM | ≤ 2.5 |
| O=C(CO[C@H]1C[C@@H](OC(F)(F)F)C1)NC12CC(n3cnc(-c4ccc(C(F)(F)F)cc4O)c3)(C1)C2 [Example 254, N-(3-(4-(2-hydroxy-4-(trifluoromethyl)phenyl)-1H-imidazol-1-yl)bicyclo[1.1.1]pentan-1-yl)-2-(3-cis-(trifluoromethoxy)cyclobutoxy)acetamide] | 5.3 nM | < 1000 nM | ≤ 2.5 |
| O=C(CO[C@H]1C[C@@H](OC(F)(F)F)C1)NC12CC(n3cnc(-c4ccc(Cl)c(F)c4)c3)(C1)C2 [Example 70, N-[3-[4-(4-chloro-3-fluoro-phenyl)imidazol-1-yl]-1-bicyclo[1.1.1]pentanyl]-2-[3-cis-(trifluoromethoxy)cyclobutoxy]acetamide] | 2.8 nM | < 1000 nM | ≤ 2.5 |
| O=C(COc1ccc(Cl)c(F)c1)NC12CC(c3nnc([C@@H]4C[C@H]4COC(F)(F)F)o3)(C1)C2 (single isomer, unassigned) [Example 81, 2-(4-chloro-3-fluoro-phenoxy)-N-[3-[5-[2-trans-(trifluoromethoxymethyl)cyclopropyl]-1,3,4-oxadiazol-2-yl]-1-bicyclo[1.1.1]pentanyl]acetamide] | 11.8 nM | < 1000 nM | ≤ 2.5 |
| O=C(COc1ccc(Cl)c(F)c1)NC12CC(NCCO[C@H]3C[C@@H](OC(F)(F)F)C3)(C1)C2 [Example 133, 2-(4-chloro-3-fluoro-phenoxy)-N-[1-[2-[cis-3-(trifluoromethoxy)cyclobutoxy]ethylamino]-3-bicyclo[1.1.1]pentanyl]acetamide] | 18.1 nM | < 1000 nM | ≤ 2.5 |
| O=C(CO[C@H]1C[C@@H](OC(F)(F)F)C1)NC12CC(n3cnc(-c4ccc(Cl)cc4)c3)(C1)C2 [Example 139, N-(3-(4-(4-chlorophenyl)-1H-imidazol-1-yl)bicyclo[1.1.1]pentan-1-yl)-2-(3-cis-(trifluoromethoxy)cyclobutoxy)acetamide] | 4.3 nM | < 1000 nM | ≤ 2.5 |
| O=C(COc1ccc(Cl)c(F)c1)NC12CC(c3nnc(CCCOC(F)(F)F)o3)(C1)C2 [Example 49, 2-(4-chloro-3-fluorophenoxy)-N-(3-(5-(3-(trifluoromethoxy)propyl)-1,3,4-oxadiazol-2-yl)bicyclo[1.1.1]pentan-1-yl)acetamide] | 18.2 nM | < 1000 nM | ≤ 2.5 |
| O=C(CO[C@H]1C[C@@H](OC(F)(F)F)C1)NC12CC(c3cc(-c4ccc(Cl)c(F)c4)no3)(C1)C2 [Example 248, N-(3-(3-(4-chloro-3-fluorophenyl)isoxazol-5-yl)bicyclo[1.1.1]pentan-1-yl)-2-(3-cis-(trifluoromethoxy)cyclobutoxy)acetamide] | 28.2 nM | < 1000 nM | ≤ 2.5 |
| O=C(CO[C@H]1C[C@@H](OC(F)(F)F)C1)NC12CC(n3cnc(-c4ccc(Cl)c(F)c4F)c3)(C1)C2 [Example 270, N-(3-(4-(4-chloro-2,3-difluorophenyl)-1H-imidazol-1-yl)bicyclo[1.1.1]pentan-1-yl)-2-(3-cis-(trifluoromethoxy)cyclobutoxy)acetamide] | 1.1 nM | < 1000 nM | ≤ 2.5 |
